This note sets out measurements from patent publication US20260035452A1 (THE UNIVERSITY OF BIRMINGHAM, priority 2022, published 2026).

For assay [1], the system named is Human dermal blood endothelial cells (HDBEC). As to the kind of experiment: HDBEC stimulation (flow cytometry, IL-6 Elisa). The assay is classed as cell-based. To be noted: 24 h. As to the method:
(§1) FIG. 10: Human dermal blood endothelial cells (HDBEC) were treated with: IL-17 vehicle (Ctrl), IL-17 or FM-0410 (100 ng/ml), alone or in combination with TNF-α (100 U/ml) for 24 h. Cells were washed, gated in their totality and singlet before the identification of IL-17Rs (RA and RC) (A, B), ICAM (C) and VCAM (D) expression. Histogram values (expressed as MIF) indicate the total positive cells (A-D). In (E) are shown phase-contrast micrographs of confluent monolayers of untreated or treated (as reported before) HDBEC. Total adhesion (expressed as INT/mm^2, F) and % of transmigration (G) are calculated with Image Pro programme (DataCell, Finchampstead). Inflammatory supernatants from all experimental conditions were assayed by Elisa for IL-6 (H) expressed in pg/ml. Data were presented as means±S.D. of n=3 healthy donors. Statistical analysis was conducted by one-way ANOVA followed by Bonferroni's for multiple comparisons. ^#P≤0.05, ^##P≤0.01, ^###P≤0.001, ^####P≤0.0001 vs Ctrl group; *P≤0.05 vs TNF-α+IL-17 group; ^∘P≤0.05, ^∘∘∘P≤0.001, ^∘∘∘∘P≤0.0001 vs TNF-α group.
Human dermal blood endothelial cells (HDBEC): Primary human dermal blood endothelial cells (HDBECs) were purchased from PromoCell and cultured in the manufacturer's recommended endothelial cell growth medium MV (PromoCell, Heidelberg, Germany). HDBECs were seeded onto 12-well tissue culture plates after 4 passages at a seeding density yielding confluent monolayers. HDBEC monolayers were washed in endothelial cell growth medium MV warmed to 37° C. and stimulated with IL-17 or FM-0410 (100 ng/ml) alone or in a combination with TNF-α (100 U/ml) for 24 h at 37° C. Cells were stimulated for 24 h, before staining with IL-17Rs (RA or RC) or ICAM/VCAM adhesion receptors using a Flow cytometry assay. Supernatants were collected and measured to evaluate IL-6 or TNF-α levels.
Flow Cytometry: HDBEC, collected after 24 h of treatment, were washed with PBS without Ca^2+ and Mg^2+ containing 25 mM lactose for 20 min at room temperature with occasional mixing. Cells were, then, incubated with FcR blocking agents (Miltenyi) in PBS without Ca^2+ and Mg^2+ containing lactose before staining cells with antibodies IL-17 Receptor A (1:100; clone 133617) and IL-17 Receptor C (1:100; clone 309822). Moreover, HDBEC cells were also stained with ICAM (BBIG-V3; 1:50, APC, BD Biosciences) and VCAM (3E2; 1:50, FITC, BD Biosciences). Protein expression was analysed by flow cytometry on a Dako CyAn (Beckman Coulter, High Wycombe, U.K.), and data were analysed using MRFIow and FlowJo software operation. The unspecific binding of antibodies was quantified by using corresponding isotype controls.
Elisa assay: The levels of IL-6 at 24 h were measured using commercially available enzyme-linked immunosorbent assay kits (ELISA kit, R&D System, Milan, Italy) according to the manufacturer's instructions. Briefly, 100 μl of supernatants, diluted standards, quality controls, and dilution buffer (blank) were applied on a plate with the monoclonal antibody for 2 h. After washing, 100 μl of biotin-labeled antibody was added and incubation continued for 1 h. […] The addition of 100 μl of the substrate and stop solution represented the last steps before the reading of absorbance (measured at 450 nm) on a microplate reader. Antigen levels in the samples were determined using a standard curve and expressed as pg/ml.
On the technique in general: Flow cytometry measures light scatter and fluorescence of single cells or particles in a stream.

Another assay concerns neutrophils. As to the kind of experiment: Transwell chemotaxis assay. The assay is classed as cell-based, human. As to the method: The cells migration after IL-17 (10-500 ng/ml), FM-0410 (10-500 ng/ml) or N-Formylmethionine-leucyl-phenylalanine (fmlp; 10^−6 M) treatment was quantified using CountBright™ Absolute Counting Beads. Data were presented as means±S.D. of n=3 healthy donors. Statistical analysis was conducted by one-way ANOVA followed by Bonferroni's for multiple comparisons. ^#P≤0.05, ^##P≤0.01, ^###P≤0.001, ^####P≤0.0001 vs Ctrl group; ^+P≤0.05 vs IL-17. Neutrophil isolation: Blood was taken according to local research ethics committee approval (QMERC2014/61). Informed consent was provided according to the Declaration of Helsinki. All blood samples were collected on the day of experiments from healthy donors and immediately used. Each condition has 3 biological replicates (3 different donors). Neutrophils were isolated using a double density histopaque gradient and hypotonic lysis as described previously. Transwell chemotaxis assay: Chemotaxis was assessed using a transwell assay. […] After 2 hours at 37° C., neutrophils were collected from the bottom wells and quantified by flow cytometry using CountBright™ Absolute Counting Beads (Thermofisher, Rugby, UK) as previously described.

The subject of assay [2] is hPBMC on cytokine-stimulated HDBEC monolayers. As to the kind of experiment: Human PBMC static adhesion / transendothelial migration assay. The assay is classed as cell-based. To be noted: co-treatment plus TNF-α. As to the method:
as §1, with “Statistical analysis was conducted by one-way ANOVA followed by Bonferroni's for multiple comparisons. ^#P≤0.05, ^##P≤0.01, ^###P≤0.001, ^####P≤0.0001 vs Ctrl group; *P≤0.05 vs TNF-α+IL-17 group; ^∘P≤0.05, ^∘∘∘P≤0.001, ^∘∘∘∘P≤0.0001 vs TNF-α group.” left out
Human PBMC transendothelial migration assay: Prior to beginning the assay, HDBEC monolayers were washed with 37° C. medium 199 (Thermo Fisher Scientific) supplemented with 0.15% w/v BSA (MilliporeSigma) to remove any residual cytokines. hPBMC (1×10^6) were co-cultured with cytokine-stimulated HDBEC monolayers at 37° C. for 20 min. […] Total hPBMC adhesion and mean percentage transmigration were calculated for each well.

Where [3] appears, read: 100 ng/ml in combination with TNF-α (100 U/ml).

No end group written: not given here.

Turning to Ac-LEKILVSVGATAVTPIVHHVAC [FM-0410], in assay [1] (setting [3]), the ICAM expression entry was “upregulation”, the IL-17RA receptor expression entry is given as “No effects”, the IL-17RC receptor expression entry was “No effects” and the VCAM expression result is “upregulation”. Besides, the “IL-6 levels (marker of cell activation)” value in assay [1] (peptide co-stimulation with TNF-α) is “upregulation”. In addition, the “chemotactic activity compared to positive control fmlp (10^−6 M)” value with neutrophils (500 ng/ml) is on record as “almost similar to positive control fmlp”. Moreover, the “chemotactic effect on neutrophils” value with neutrophils (10-500 ng/ml, vs Control group) is reported as “concentration-dependent chemotactic effect”. Further, in assay [2], the “total number of adhered hPBMC” value is “significant increase” and the “transmigrated hPBMC” value is “significant increase”.
